Earlier results in patent US20190274971A1, “USE OF AMERICAN GINSENG TO […]-INDUCED INTOXICATION” (ENGEN MEDICAL CORPORATION, priority 2018, published 2019).

Target: CB1 receptor (Homo sapiens, UniProt P21554)
Conditions: literature statement (Leonti et al., Biochemical Pharmacology 79(12):1815-1826, 2010)

CB1 receptor, sequence (P21554 whole entry): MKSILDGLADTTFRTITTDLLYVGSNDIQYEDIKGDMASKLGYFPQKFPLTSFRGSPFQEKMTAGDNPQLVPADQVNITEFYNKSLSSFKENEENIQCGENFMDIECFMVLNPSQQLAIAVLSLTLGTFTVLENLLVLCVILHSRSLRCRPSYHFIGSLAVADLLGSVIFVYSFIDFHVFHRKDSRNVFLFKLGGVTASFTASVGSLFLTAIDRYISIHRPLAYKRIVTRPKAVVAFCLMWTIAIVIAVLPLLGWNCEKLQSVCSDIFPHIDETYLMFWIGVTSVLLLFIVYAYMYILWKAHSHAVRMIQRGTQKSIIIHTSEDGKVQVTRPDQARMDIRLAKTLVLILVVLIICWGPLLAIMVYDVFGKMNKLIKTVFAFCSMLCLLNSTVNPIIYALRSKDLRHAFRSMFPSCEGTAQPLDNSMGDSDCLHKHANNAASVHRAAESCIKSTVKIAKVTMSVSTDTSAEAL

C=C[C@H](O)C#CC#CC/C=C\CCCCCCC [falcarinol]
activity at the CB1 receptor: potent inverse agonist
